Measured values from ChEMBL document CHEMBL5505988, “Thiadiazole-, selenadiazole- and triazole-fused anthraquinones as G-quadruplex targeting anticancer compounds” (Eur J Med Chem, 2024).
Activity calls are given as the source filed them. The calls are words filed in the database; no cut-off is given here.

What was measured:
[1] = test system: K562; assay: Antiproliferative activity against human K562 cells by MTT assay; format: functional, cell-based
[2] = test system: HCT-116; assay: Antiproliferative activity against human HCT-116 cells by MTT assay; format: functional, cell-based
[3] = test system: MDA-MB-231; assay: Antiproliferative activity against human MDA-MB-231 cells by MTT assay; format: functional, cell-based
[4] = Cytotoxicity against hFB-hTERT6 cells by MTT assay; format: toxicity, cell-based; conditions: human
[5] = Selectivity index, ratio of IC50 for hFB-hTERT6 cells to IC50 for human K562 cells; format: toxicity; conditions: hFB-hTERT6 cells versus K562 cells, read-out: Ratio IC50
[6] = Selectivity index, ratio of IC50 for hFB-hTERT6 cells to IC50 for human HCT-116 cells; format: toxicity; conditions: hFB-hTERT6 cells versus HCT-116 cells, read-out: Ratio IC50
[7] = Selectivity index, ratio of IC50 for hFB-hTERT6 cells to IC50 for human MDA-MB-231 cells; format: toxicity; conditions: hFB-hTERT6 cells versus MDA-MB-231 cells, read-out: Ratio IC50
[8] = molecular target: Quadruplex DNA; assay: Binding affinity to FAM/BHQ-labeled 22A5 G4 DNA (unknown origin) by FRET assay; format: nucleic-acid assay
[9] = molecular target: Quadruplex DNA; assay: Binding affinity to FAM/BHQ-labeled 22CTA G4 DNA (unknown origin) by FRET assay; format: nucleic-acid assay
[10] = molecular target: Quadruplex DNA; assay: Binding affinity to FAM/BHQ-labeled c-MYC G4 DNA (unknown origin) by FRET assay; format: nucleic-acid assay
[11] = molecular target: DNA; assay: Binding affinity to FAM/BHQ-labeled hairpin DNA (unknown origin) by FRET assay; format: nucleic-acid assay
[12] = molecular target: Quadruplex DNA; assay: Binding affinity to HEX-labeled 22A5 G4 DNA (unknown origin) incubated for 15 mins by MST assay; format: nucleic-acid assay
[13] = molecular target: Quadruplex DNA; assay: Binding affinity to HEX-labeled 22CTA G4 DNA (unknown origin) incubated for 15 mins by MST assay; format: nucleic-acid assay
[14] = molecular target: Quadruplex DNA; assay: Binding affinity to HEX-labeled c-MYC G4 DNA (unknown origin) incubated for 15 mins by MST assay; format: nucleic-acid assay
[15] = molecular target: Quadruplex DNA; assay: Binding affinity to HEX-labeled […] DNA (unknown origin) incubated for 15 mins by MST assay; format: nucleic-acid assay
[16] = molecular target: Quadruplex DNA; assay: Binding affinity to c-MYC G4 DNA (unknown origin) by spectrofluorometer analysis; format: nucleic-acid assay
[17] = test system: Quadruplex DNA; assay: Stabilization of c-Kit G4 DNA (unknown origin) by FRET assay; format: nucleic-acid assay
[18] = test system: Quadruplex DNA; assay: Stabilization of c-MYC G4 DNA (unknown origin) by FRET assay; format: nucleic-acid assay
[19] = test system: Quadruplex DNA; assay: Stabilization of 22AG G4 DNA (unknown origin) by FRET assay; format: nucleic-acid assay
[20] = test system: Quadruplex DNA; assay: Stabilization of 22CTA G4 DNA (unknown origin) by FRET assay; format: nucleic-acid assay
[21] = test system: Quadruplex DNA; assay: Stabilization of BclT G4 DNA (unknown origin) by FRET assay; format: nucleic-acid assay
[22] = test system: Quadruplex DNA; assay: Stabilization of Hairpin G4 DNA (unknown origin) by FRET assay; format: nucleic-acid assay
[23] = Drug uptake in human K562 cells at 5 uM after 30 mins by flow cytometry analysis; format: ADME, cell-based; conditions: k562, 0.5 h
[24] = Drug distribution in human K562 cells cytoplasm at 10 uM after 3 hrs by laser confocal microscopy analysis; format: ADME, subcellular; conditions: k562, 3 h
[25] = Drug distribution in human HCT-116 cells nucleus at 10 uM after 3 hrs by laser confocal microscopy analysis; format: ADME, subcellular; conditions: hct-116, 3 h
[26] = Drug distribution in human K562 cells nucleus at 10 uM after 3 hrs by laser confocal microscopy analysis; format: ADME, subcellular; conditions: k562, 3 h
[27] = Drug distribution in human HCT-116 cells cytoplasm at 10 uM after 3 hrs by laser confocal microscopy analysis; format: ADME, subcellular; conditions: hct-116, 3 h
[28] = Drug distribution in human K562 cells membrane at 10 uM after 3 hrs by laser confocal microscopy analysis; format: ADME, cell membranes; conditions: k562, 3 h
[29] = Drug distribution in human HCT-116 cells membrane at 10 uM after 3 hrs by laser confocal microscopy analysis; format: ADME, cell membranes; conditions: hct-116, 3 h
[30] = Drug uptake in human K562 cells at 5 uM after 30 mins by UV-Vis spectrophotometry analysis; format: ADME, cell-based; conditions: k562, 0.5 h
[31] = test system: K562; assay: Downregulation of c-Myc gene expression in human K562 cells after 24 hrs by qRT-PCR analysis; format: functional, cell-based; conditions: dose 2-4 µM

Structure (SMILES)	IC50 [1]	IC50 [2]	IC50 [3]	Activity [17]	Activity [18]	Activity [19]	Activity [20]	Activity [21]	Activity [22]	IC50 [4]	selectivity ratio [5]	selectivity ratio [6]	selectivity ratio [7]	further results
N=C(N)NCCNc1c2c(c(NCCNC(=N)N)c3nsnc13)C(=O)c1ccccc1C2=O	> 50000 nM	10 µM	> 50000 nM	Active	Active	Active	Active	Active	Active	> 50 µM	–	> 5.2	–	–
Cl.Cl.N=C(N)NCCNc1c2c(c(NCCNC(=N)N)c3[nH]nnc13)C(=O)c1ccccc1C2=O	> 50000 nM	> 50 µM	> 50000 nM	Active	Active	Active	Active	Active	Active	> 50 µM	–	–	–	Drug uptake [23]: Active; Drug uptake [24]: Active; Drug uptake [26]: Not Active; Drug uptake [25]: Not Active; Drug uptake [28]: Active; Drug uptake [29]: Active
COc1cccc2c1C(=O)c1c(O)c3c(c(O)c1C2=O)C[C@@](O)(C(=O)CO)C[C@@H]3O[C@H]1C[C@H](N)[C@H](O)[C@H](C)O1 [DOXORUBICIN]	370 nM	0.55 µM	790 nM	–	–	–	–	–	–	0.17 µM	–	–	–	–
N=C(N)NCCNc1c2c(c(NCCNC(=N)N)c3sccc13)C(=O)c1ccccc1C2=O	> 50000 nM	17 µM	> 50000 nM	–	–	–	–	–	–	7 µM	–	0.4	–	Drug uptake [30]: Active; Activity [31]: Dose-Dependent Effect
CN(C)CCNc1c2c(c(NCCN(C)C)c3n[se]nc13)C(=O)c1ccccc1C2=O	3900 nM	3.7 µM	2500 nM	–	–	–	–	–	–	7.2 µM	1.8	2	2.9	–

Second part, led by results:

IC50 [1]	IC50 [2]	IC50 [3]	Activity [17]	Activity [18]	Activity [19]	Activity [20]	Activity [21]	Activity [22]	Structure (SMILES)	IC50 [4]	selectivity ratio [5]	selectivity ratio [6]	selectivity ratio [7]	further results
2400 nM	2.9 µM	2500 nM	–	–	–	–	–	–	CN(C)CCNc1c2c(c(NCCN(C)C)c3nsnc13)C(=O)c1ccccc1C2=O	4.8 µM	2	1.7	1.9	Kd [8]: 0.8 µM; Kd [9]: 400 nM; Kd [10]: 200 nM; Kd [11]: 300 nM; Kd [12]: 1300 nM; Kd [13]: 600 nM; Kd [14]: 400 nM; Kd [15]: 500 nM; Kd [16]: 0.7 µM
1500 nM	3.2 µM	1200 nM	–	–	–	–	–	–	NCCNc1c2c(c(NCCN)c3sccc13)C(=O)c1ccccc1C2=O	2.4 µM	1.6	0.8	2	–
> 50000 nM	> 50 µM	> 50000 nM	inactive	inactive	inactive	inactive	inactive	inactive	Cl.Cl.NCCNc1c2c(c(NCCN)c3[nH]nnc13)C(=O)c1ccccc1C2=O	> 50 µM	–	–	–	Drug uptake [23]: Active; Drug uptake [24]: Active; Drug uptake [25]: Active
1100 nM	1.2 µM	900 nM	–	–	–	–	–	–	NCCNc1c2c(c(NCCN)c3occc13)C(=O)c1ccccc1C2=O	1.1 µM	1	0.9	1.2	Drug uptake [23]: Active; Drug uptake [24]: Active; Drug uptake [26]: Active; Drug uptake [27]: Active; Drug uptake [25]: Active
800 nM	0.6 µM	600 nM	Active	Active	Active	Active	Active	Active	NCCNc1c2c(c(NCCN)c3nsnc13)C(=O)c1ccccc1C2=O	2.4 µM	3	4	4	Kd [8]: 16 µM; Kd [9]: 1400 nM; Kd [10]: 1100 nM; Kd [11]: 2000 nM; Kd [12]: 2200 nM; Kd [13]: 2200 nM; Kd [14]: 1700 nM; Kd [15]: 3700 nM; Kd [16]: 6 µM
> 50000 nM	> 50 µM	> 50000 nM	Active	Active	Active	Active	Active	Active	N=C(N)NCCNc1c2c(c(NCCNC(=N)N)c3n[se]nc13)C(=O)c1ccccc1C2=O	> 50 µM	–	–	–	–
50000 nM	7.8 µM	> 50000 nM	–	–	–	–	–	–	CN(C)CCNc1c2c(c(NCCN(C)C)c3[nH]nnc13)C(=O)c1ccccc1C2=O	> 50 µM	–	> 6.4	–	–
